Source: US11591564B2, “Peptide conjugated hydrogel substrate for the maintenance and expansion of human pluripotent stem cells” (University of Pittsburgh—Of the Commonwealth System of …, priority 2016, dated 2023)
Values joined by “and” are separate entries in the source; they are usually repeats but may differ in a detail not shown here. Identical values can stand only once. No end group written: not given here.

What was measured:
hESCs = assay: hESC attachment and viability on HAV10-modified LBL films, effect of EDC/NHS concentration; format: cell-based; conditions: EDC/NHS used for HAV10 conjugation of PEI(Alg/PAH)5Alg films; 6 hours attachment
Protocol: Layer-by-layer (LBL) coating onto glass coverslips was initiated by incubation in 1.1 mg/ml Polyethylenimine (PEI) for 5 min. The polyelectrolyte solutions used for LBL deposition were 1.1 mg/ml low viscosity alginate (Alg) and poly (allylamine hydrochloride) (PAH), made using 0.1 M 2-(N-morpholino) ethanesulfonic acid (MES) buffer with 0.3M NaCl at pH 6.5. Polyelectrolyte multilayers were deposited by alternatively immersing slides into Alg, followed by PAH, for 1 min each, and were subsequently washed with 0.9% NaCl for 1 min between each deposition step. This process was repeated for 5 Alg/PAH layers, and the film was terminated with a final Alg layer (PEI(Alg/PAH)5Alg). Coverslips were dried at room temperature until used.
Prepared PEI(Alg/PAH)5Alg films were functionalized with the e-cadherin mimicking peptide HAV10 using water soluble carbodiimide chemistry. […]
Human embryonic stem cells (hESCs) were treated with the ROCK inhibitor Y-27632 for 2 hours prior to harvesting. hESCs were harvested using enzyme-free dissociation buffer and were treated with the Vibrant DiD cell labeling solution, to allow for visualization of cell attachment (700 nm). […] Cell attachment for each condition was determined by normalizing the MFI of attached cells to the MFI of the total possible number of cells, for each well imaged.

hPSCs = hPSCs encapsulated in alginate beads (3D), 10-100 mM BaCl2 tested, day 6
Protocol: hESCs were encapsulated using 10, 15, 20, 50 or 100 mM BaCl2 at a seeding density of 1×10^6 cells/ml of alginate solution. Alginate capsules were incubated for 6-8 min in the BaCl2 solution. Capsules were washed three times with DMEM/F12 and suspended in mTeSR1 ([sequence] Technologies, Vancouver, BC) with 10 mM of the ROCK inhibitor (rho-associated, coiled-coil containing protein kinase inhibitor) Y-27632 (e.g., 4-[(1R)-1-aminoethyl]-N-4-pyridinyl-trans-cyclohexanecarboxamide, dihydrochloride, [sequence] Technologies, Vancouver, BC) for 4 days, followed by 2 days in mTeSR1 alone to allow for colony formation. On day 6, viability of encapsulated hPSCs was analyzed by LIVE/DEAD staining, and imaged with fluorescent microscopy. The stock LIVE images from LIVE/DEAD analysis were processed using Metamorph Integrated Morphometry Analysis. hPSC colony data was generated for each colony within each image, measuring the area of the colony. This image processing was done on images taken on 5 capsules, each day for each condition.

H1 hESCs [1] = assay: Directed differentiation to definitive endoderm, qRT-PCR of SOX17 and FOXA2; format: cell-based, human; conditions: for FOXA2 gene expression, fold increase / SOX17 gene expression, upregulation compared to undifferentiated hESC controls: after DE induction (ActivinA + Wnt3A, 4 days); for FOXA2 expression, difference compared to Matrigel / SOX17 expression, difference compared to Matrigel: after DE induction
Protocol: (§1) hESC seeded on the peptide modified alginate hydrogels were propagated for 4 days in mTeSR1 with 10 μm Y-27632 prior to DE induction. DE was induced using 100 ng/ml ActivinA (R&D Systems) with 25 ng/ml Wnt3A (R&D Systems) for 4 days. Quantitative Reverse Transcriptase Polymerase Chain Reaction. mRNA was isolated using the NucleoSpin RNA II kit (Macherey-Nagel, Bethlehem, Pa.). cDNA was obtained using ImpromII Reverse Transcription (Promega, Madison, Wis.). Each PCR reaction contained 5 μl SYBR Green Master Mix (Agilent, Santa Clara, Calif.), 2 μl nuclease free H2O, 2 μl primer, and 10 cDNA. Samples were normalized to the house keeping gene GAPDH and analyzed relative to UD hESCs using the ΔΔCt method. Gene expression was measured with quantitative polymerase chain reaction (qRT-PCR) using an MX3005P system (Agilent).
Having confirmed that hPSCs maintained high pluripotency after being propagated on the E-cadherin mimicking substrates, the next question was if the differentiation potency was also maintained. To evaluate differentiation potential, cells were induced toward the definitive endoderm (DE) germ layer.

H1 hESCs [2] = assay: Day 1 cell attachment to peptide conjugated alginate hydrogel (DiD label, LI-COR MFI); format: cell-based, human; conditions: peptide conjugated to alginate at 0-500 μg/ml
Protocol: The alginate hydrogels were formed prior to peptide attachment. The culture well was coated with a thin layer of 1.1% (w/v) low viscosity alginate (Sigma-Aldrich) with 0.2% (v/v) gelatin (Sigma-Aldrich), which was allowed to dry overnight. 20 mM BaCl2 was used to rehydrate and simultaneously cross link the alginate in a thin hydrogel covering the bottom of the culture well. Peptide conjugation was done using water soluble carbodiimide chemistry. Alginate hydrogels were activated by incubating with 20 mM/10 mM EDC/NHS in buffer containing 0.3 M 2-(N-morpholino) ethanesulfonic acid (MES) and 0.1 M NaCl, for 15 min. The peptides were then added and incubated overnight at 4° C. to allow for peptide conjugation to the […] of the alginate hydrogel. After conjugation, peptide modified hydrogels were washed with 0.9% saline prior to seeding cells.
Cell Attachment. For cell attachment studies to the peptide modified hydrogels, hESC were first labeled with DiD according to manufactures instruction, a fluorescent lipophilic dye, which is incorporated in the cell membrane. hESC were treated with 10 μm Y-27632 (R&D Systems, Minneapolis, Min.) for 2 hours prior to harvesting by Accutase (Invitrogen) treatment for 5-7 min. […] Cell attachment was analyzed 24 hours after seeding. First, total cell number per well was quantified using the LI-COR Odyssey scanner and Image Studio software to obtain the total possible MFI. Dead and unattached cells were washed away and the number of attached cells per well was again quantified using the LI-COR Odyssey scanner Image Studio software. […]
Having confirmed peptide conjugation to the alginate hydrogel, our first step was to analyze cell attachment to each peptide conjugated substrate. […] After 1 day, cell attachment was quantified for each tested condition using the LI-COR Odyssey scanner. Percent cell attachment was determined by scanning the signal for total seeded cells (prior to wash) and attached cells (post-wash) and normalizing the attached cell MFI to the total cell MFI, for each peptide and peptide concentration (FIG. 9A).

H1 hESCs [3] = assay: Cell expansion by MTS assay, day 6 normalized to day 1; format: cell-based, human; conditions: 6 days of propagation; alginate modified with 50 μg/ml peptide, or recombinant E-cadherin
Protocol: To determine cell expansion, cellular metabolism was assayed on cells attached to alginate conjugated with 50 μg/ml of each peptide using the CellTiter 96® AQueous One Solution Cell Proliferation Assay (MTS) after 1 and 6 days of culture, according to manufacturer's instructions. Briefly, cells were incubated with the MTS solution at a 1:5 v/v dilution for 3 hours at 37° C. Absorbance intensity of the supernatant at 490 nm was measured using a Synergy 2 multi-mode Microplate Reader. Fold expansion was determined by normalizing the day 6 absorbance by the day 1 absorbance, for cells grown on each peptide-conjugated alginate substrate.
Since high cell expansion is necessary to generate clinically relevant numbers of hPSCs, we next quantified the expansion potential of hPSCs grown on each peptide. Expansion potential was determined by normalizing cell number after 6 days of propagation, by day 1 cell number using MTS.

H1 hESCs [4] = assay: Pluripotency after propagation, qRT-PCR of OCT4 and Nanog; format: cell-based, human; conditions: 6 days on alginate conjugated with 50 μg/ml peptide
Protocol: as §1
Having confirmed that the substrates supported attachment and propagation of hPSCs, the next step was to analyze the maintenance of hPSC pluripotency after propagation. hPSC pluripotency is the ability to become any cell type in the body, and along with self-renewal, is the defining characteristic of hPSCs. The maintenance of pluripotency is critical for the downstream differentiation of hPSC into any functional cell types, for cell therapy applications. hPSCs were seeded on alginate conjugated with 50 μg/ml of HAV10, ADT10, HAV6, or ADT, and propagated for 6 days. […] As before, cell morphology was similar across each peptide, and appeared to have similar morphology to the typical hPSC colony (FIG. 12A).

Row | Molecule | toxicity towards hPSC attachment and viability (hESCs) | BaCl2 concentration supportive and strongly inductive of hPSC growth (hPSCs) [mM] | FOXA2 gene expression, fold increase (H1 hESCs [1]) [fold] | SOX17 gene expression, upregulation compared to undifferentiated hESC controls (H1 hESCs [1]) [fold] | peptide concentration at which cell attachment peaked (H1 hESCs [2]) [µg/mL] | fold expansion of hPSCs (day 6 / day 1) (H1 hESCs [3]) | Nanog gene expression, upregulation compared to Matrigel (H1 hESCs [4]) | OCT4 gene expression, upregulation compared to Matrigel (H1 hESCs [4]) | FOXA2 expression, difference compared to Matrigel (H1 hESCs [1]) | SOX17 expression, difference compared to Matrigel (H1 hESCs [1]) | cell attachment compared among peptides (H1 hESCs [2])
1 | 1-ethyl-3-(-3-dimethylaminopropyl) carbodiimide hydrochloride (EDC)/N-hydroxysuccinimide (NHS) [EDC/NHS] | mild toxicity |  |  |  |  |  |  |  |  |  | 
2 | [Ba+2].[Cl-].[Cl-] [Barium Chloride (BaCl2), Barium Chloride] |  | < 15 |  |  |  |  |  |  |  |  | 
3 | ADTPPV (also: conjugated to alginate hydrogel, site not given here) [ADT6] |  |  | 174 | 3400 | 50 | 11 fold | on par with Matrigel | on par with Matrigel |  |  | 
4 | LFSHAVSSNG (also: conjugated to alginate hydrogel, site not given here) [HAV10] |  |  | 497 | ~15000 | 50 | approximately 23 fold |  |  | no statistical difference | no statistically significant difference | 
5 | QGADTPPVGV (also: conjugated to alginate hydrogel, site not given here) [ADT10] |  |  | 409 | ~13700 |  | approximately 14 fold | 1.5 fold and 1.6 fold | 3 fold and 3.6 fold | no statistical difference | no statistically significant difference | highest cell attachment among all peptides
6 | SHAVSS (also: conjugated to alginate hydrogel, site not given here) [HAV6] |  |  | 355 | 5900 |  | 16 fold | 1.5 fold | 2 fold |  |  | 
